Ki data for 44 molecules are collected here from patent US8716475B2, “2-aminopyrimidine modulators of the histamine H4 receptor” (Janssen Pharmaceutica NV, priority 2007, dated 2014).

Broadly, the Ki is the dissociation constant of the complex between target and ligand, obtained from inhibition or displacement.

Structures are written as SMILES. A value given as a limit tells only on which side of the number the result lay.

T1 sequence (Q9H3N8 whole entry): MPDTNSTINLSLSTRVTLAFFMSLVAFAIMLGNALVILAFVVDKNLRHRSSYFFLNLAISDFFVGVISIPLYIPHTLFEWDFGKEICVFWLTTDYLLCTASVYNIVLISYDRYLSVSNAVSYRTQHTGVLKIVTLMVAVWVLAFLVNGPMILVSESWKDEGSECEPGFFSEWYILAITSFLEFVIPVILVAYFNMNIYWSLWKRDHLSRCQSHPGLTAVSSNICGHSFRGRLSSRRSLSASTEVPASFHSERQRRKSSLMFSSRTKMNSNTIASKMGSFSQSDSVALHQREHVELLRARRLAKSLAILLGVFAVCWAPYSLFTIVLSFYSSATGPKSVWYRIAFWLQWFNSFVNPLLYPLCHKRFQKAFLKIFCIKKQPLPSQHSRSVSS

The first assay has as its target T1, human H4 receptor (Homo sapiens, UniProt Q9H3N8).
T1 construct: expressed in transfected cells
Briefly: Binding Assay on Recombinant Human Histamine H4 Receptor. The note with it: Table 1; [3H] histamine competition binding, membranes of SK-N-MC cells transfected with human H4 receptor; average of results. In short, it runs like this: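 Radioligand binding used membranes from SK-N-MC cells stably or transiently expressing human H4, prepared in 50 mM Tris/5 mM EDTA. Nonspecific binding was defined with 100 μM histamine. Bound radioactivity was counted after filtration on PEI-treated GF/C filters, and ">" values are the highest concentration tested.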
Regarding `CN1CCN(c2cc(C3CCOC3)nc(N)n2)CC1` (centres unmarked) [Example 57, 4-(4-Methyl-piperazin-1-yl)-6-(tetrahydro-furan-3-yl)-pyrimidin-2-ylamine], the Ki was determined as 27 nM. Still for that read-out and setting: as for `CCc1cc(N2CCNCC2)nc(N)n1` [Example 33, 4-Ethyl-6-piperazin-1-yl-pyrimidin-2-ylamine], the figure is 10 nM.

Take `CN[C@@H]1CCN(c2cc(C3CCCCC3)nc(N)n2)C1` [Example 53, (R)-(4-Cyclohexyl-6-3-methylamino-pyrrolidin-1-yl)-pyrimidin-2-ylamine]: the inhibitory constant (Ki) was 3 nM.

As for `CC(C)c1cc(N2CC3CCNC3C2)nc(N)n1` (stereo not drawn) [Example 16, 4-(cis-Hexahydro-pyrrolo[3,4-b]pyrrol-5-yl)-6-isopropyl-pyrimidin-2-ylamine], the Ki is 65 nM.

Consider `CN[C@@H]1CCN(c2cc(C)nc(N)n2)C1` [Example 23, (R)-4-Methyl-6-(3-methylamino-pyrrolidin-1-yl)-pyrimidin-2-ylamine], for which the Ki was found to be 77 nM. With `CC(C)c1cc(N2C[C@H]3C[C@@H]2CN3)nc(N)n1` [Example 15, (R,R)-4-(2,5-Diaza-bicyclo[2.2.1]hept-2-yl)-6-isopropyl-pyrimidin-2-ylamine], the Ki stood at 692 nM. As to `Nc1nc(C2CCCC2)cc(N2CC3CCNC3C2)n1` (stereo not drawn) [Example 6, 4-Cyclopentyl-6-(cis-hexahydro-pyrrolo[3,4-b]pyrrol-5-yl)-pyrimidin-2-ylamine], the Ki was 6 nM.

Take `Nc1nc(C2CCCCC2)cc(N2C[C@H]3CCCN[C@H]3C2)n1` [Example 55, (R,R)-4-Cyclohexyl-6-(octahydro-pyrrolo[3,4-b]pyridin-6-yl)-pyrimidin-2-ylamine]: the Ki is 1 nM. Turning to `Nc1nc2c(c(N3C[C@@H]4C[C@H]3CN4)n1)CCCC2` [Example 73, (S,S)-4-(2,5-Diaza-bicyclo[2.2.1]hept-2-yl)-5,6,7,8-tetrahydro-quinazolin-2-ylamine], the Ki was greater than 10000 nM. Turning to `Nc1nc(C2CCCC2)cc(N2CCNCC2)n1` [Example 1, 4-Cyclopentyl-6-piperazin-1-yl-pyrimidin-2-ylamine], the inhibition constant (Ki) came out at 1 nM. Same read-out and setting: as for `Cc1nc(N)nc(N2C[C@H]3CN(C)C[C@H]3C2)c1C` [Example 30, 4,5-Dimethyl-6-(cis-5-methyl-hexahydro-pyrrolo[3,4-c]pyrrol-2-yl)-pyrimidin-2-ylamine], the figure is 530 nM; as for `CN[C@@H]1CCN(c2nc(N)nc3c2CCCC3)C1` [Example 69, (R)-4-(3-Methylamino-pyrrolidin-1-yl)-5,6,7,8-tetrahydro-quinazolin-2-ylamine], 43 nM; as for `CC(C)c1cc(N2C[C@@H]3C[C@H]2CN3)nc(N)n1` [Example 14, (S,S)-4-(2,5-Diaza-bicyclo[2.2.1]hept-2-yl)-6-isopropyl-pyrimidin-2-ylamine], 673 nM. On to `CCc1cc(N2C[C@H]3CCCN[C@H]3C2)nc(N)n1` [Example 39, (R,R)-(4-Ethyl-6-octahydro-pyrrolo[3,4-b]pyridin-6-yl)-pyrimidin-2-ylamine], for which the Ki was 10 nM. Still for that read-out and setting: for `Nc1nc(C2CC2)cc(N2CC3CCCNC3C2)n1` (stereo not drawn) [Example 42, 4-Cyclopropyl-6-(cis-octahydro-pyrrolo[3,4-b]pyridin-6-yl)-pyrimidin-2-ylamine] the value was 18 nM; for `Cc1nc(N)nc(N2CC3CCCNC3C2)c1C` (stereo not drawn) [Example 31, 4,5-Dimethyl-6-(cis-octahydro-pyrrolo[3,4-b]pyridin-6-yl)-pyrimidin-2-ylamine], 249 nM.

`CN1CCN(c2cc(C3CCOCC3)nc(N)n2)CC1` [Example 59, 4-(4-Methyl-piperazin-1-yl)-6-(tetrahydro-pyran-4-yl)-pyrimidin-2-ylamine]: the inhibition constant Ki is 29 nM. On the same count and under the same terms, for `CC(C)c1cc(N2C[C@H]3CCCN[C@H]3C2)nc(N)n1` [Example 20, (R,R)-4-Isopropyl-6-(cis-octahydro-pyrrolo[3,4-b]pyridin-6-yl)-pyrimidin-2-ylamine] the value was 18 nM.

Still in this assay, the particulars now being: Table 2, data marked with an asterisk (*): obtained by the cell harvester method; [3H] histamine competition binding, SK-N-MC membranes.
On to `CCCCc1nc(N)nc(N2CC[C@@H](NC)C2)c1OC` [Example 106, (R)-4-Butyl-5-methoxy-6-(3-methylamino-pyrrolidin-1-yl)-pyrimidin-2-ylamine], for which the Ki turned out to be 39 nM.

Consider `COc1c(C2CCCC2)nc(N)nc1N(C)CCN` [Example 115, N^4-(2-Amino-ethyl)-6-cyclopentyl-5-methoxy-N^4-methyl-pyrimidine-2,4-diamine], for which the Ki worked out at 1430 nM. As for `CC(C)(C)c1cc(N2C[C@H]3CNC[C@H]3C2)nc(N)n1` [Example 132, 4-tert-Butyl-6-(cis-hexahydro-pyrrolo[3,4-c]pyrrol-2-yl)-pyrimidin-2-ylamine], the inhibitory constant (Ki) turned out to be 356 nM.

Still in this assay, the particulars now being: Table 2; [3H] histamine competition binding, membranes of SK-N-MC cells transfected with human H4 receptor; average of results.
Regarding `CN(CCN)c1cc(C2CCOC2)nc(N)n1` (centres unmarked) [Example 189, N^4-(2-Amino-ethyl)-N^4-methyl-6-(tetrahydro-furan-3-yl)-pyrimidine-2,4-diamine], the Ki was determined as 6 nM. On the same count and under the same terms, for `CNCCN(C)c1cc(C2CCOC2)nc(N)n1` (centres unmarked) [Example 197, N^4-Methyl-N^4-(2-methylamino-ethyl)-6-(tetrahydro-furan-3-yl)-pyrimidine-2,4-diamine] the value was 204 nM. In the case of `CCOCc1cc(N2CC[C@@H](NC)C2)nc(N)n1` [Example 241, (R)-Ethoxymethyl-6-(3-methylamino-pyrrolidin-1-yl)-pyrimidin-2-ylamine], the Ki came out at 31 nM. With `CC(C)c1cc(N(C)CCN)nc(N)n1` [Example 92, N^4-(2-Amino-ethyl)-6-isopropyl-N^4-methyl-pyrimidine-2,4-diamine], the Ki came out at 281 nM. With `Nc1nc(CCc2ccccc2)cc(N2CCNCC2)n1` [Example 247, 4-Phenethyl-6-piperazin-1-yl-pyrimidin-2-ylamine], the Ki was 3 nM. Still for that read-out and setting: for `CN1CCN(c2cc(C3(C)CCOCC3)nc(N)n2)CC1` [Example 154, 4-(4-Methyl-piperazin-1-yl)-6-(4-methyl-tetrahydro-pyran-4-yl)-pyrimidin-2-ylamine] the value was 49 nM; for `CCCc1cc(N2CCN(C)CC2)nc(N)n1` [Example 144, 4-(4-Methyl-piperazin-1-yl)-6-propyl-pyrimidin-2-ylamine], 6 nM; for `Nc1nc(CCC(F)(F)F)cc(N2CCNCC2)n1` [Example 182, 4-piperazin-1-yl-6-(3,3,3-trifluoro-propyl)-pyrimidin-2-ylamine], 20 nM.

Turning to `CN1C[C@@H]2CN(c3cc(Cc4ccc(Cl)cc4)nc(N)n3)C[C@@H]2C1` [Example 236, 4-(4-Chloro-benzyl)-6-(cis-5-methyl-hexahydro-pyrrolo[3,4-c]pyrrol-2-yl)-pyrimidin-2-ylamine], the Ki was determined as 249 nM. Take `COCc1cc(N2CCNCC2)nc(N)n1` [Example 224, 4-Methoxymethyl-6-piperazin-1-yl-pyrimidin-2-ylamine]: the Ki is 26 nM. The same measure, in the same setting: as for `CN[C@@H]1CCN(c2cc(C3Cc4ccccc4C3)nc(N)n2)C1` [Example 164, (R)-4-Indan-2-yl-6-(3-methylamino-pyrrolidin-1-yl)-pyrimidin-2-ylamine], the figure is 4 nM.

On to `CCCCc1nc(N)nc(NCCN)c1OC` [Example 110, N^4-(2-Amino-ethyl)-6-butyl-5-methoxy-pyrimidine-2,4-diamine], for which the Ki worked out at 80 nM.

As to `CN[C@@H]1CCN(c2cc(CCC(F)(F)F)nc(N)n2)C1` [Example 183, (R)-4-(3-Methylamino-pyrrolidin-1-yl)-6-(3,3,3-trifluoro-propyl)-pyrimidin-2-ylamine], the Ki came out at 16 nM.

For the molecule `CN1CCN(c2cc(C3CC3c3ccccc3)nc(N)n2)CC1` (stereo not drawn) [Example 158, 4-(4-Methyl-piperazin-1-yl)-6-(trans-2-phenyl-cyclopropyl)-pyrimidin-2-ylamine], the Ki came to 8 nM.

For `CN[C@@H]1CCN(c2cc(CC3CCCO3)nc(N)n2)C1` (stereo partly drawn) [Example 228, (R)-4-(3-Methylamino-pyrrolidin-1-yl)-6-(tetrahydro-furan-2-ylmethyl)-pyrimidin-2-ylamine], the Ki stood at 91 nM. On the same count and under the same terms, as for `Nc1nc(C2CC2)cc(N2CC(N)C2)n1` [Example 122, 4-(3-Amino-azetidin-1-yl)-6-cyclopropyl-pyrimidin-2-ylamine], the figure is 22 nM; as for `CN1C[C@@H]2CN(c3cc(C(C)(C)C)nc(N)n3)C[C@@H]2C1` [Example 128, 4-tert-Butyl-6-(cis-5-methyl-hexahydro-pyrrolo[3,4-c]pyrrol-2-yl)-pyrimidin-2-ylamine], 19 nM. Take `CCCc1cc(N2C[C@H]3CN(C)C[C@H]3C2)nc(N)n1` [Example 145, 4-(cis-5-Methyl-hexahydro-pyrrolo[3,4-c]pyrrol-2-yl)-6-propyl-pyrimidin-2-ylamine]: the inhibitory constant (Ki) was 117 nM. Still for that read-out and setting: for `CN1CCN(c2cc(CCC(F)(F)F)nc(N)n2)CC1` [Example 181, 4-(4-Methyl-piperazin-1-yl)-6-(3,3,3-trifluoro-propyl)-pyrimidin-2-ylamine] the value was 8 nM; for `COCc1cc(N2CCCC(N)C2)nc(N)n1` (stereo in doubt) [Example 225, (R)-4-(3-Amino-piperidin-1-yl)-6-methoxymethyl-pyrimidin-2-ylamine], 464 nM; for `CCc1cc(N2CC[C@H](NC)C2)nc(N)n1` [Example 150, (S)-4-Ethyl-6-(3-methylamino-pyrrolidin-1-yl)-pyrimidin-2-ylamine], 85 nM. Regarding `Nc1nc(C2CCCC2)cc(N2CCC3(CCCN3)C2)n1` (single isomer, unassigned) [Example 258, 4-Cyclopentyl-6-(cis-1,7-diaza-spiro[4.4]non-7-yl)-pyrimidin-2-ylamine], the Ki was found to be 34 nM. Regarding `CCOCc1cc(N2CC[C@@H](N)C2)nc(N)n1` [Example 242, (R)-Ethoxymethyl-6-(3-amino-pyrrolidin-1-yl)-pyrimidin-2-ylamine], the Ki was 22 nM.
